Data reported in US20230226002A1, “RETINAL BIOA[…] SYNTHETIC VERY-LONG-CHAIN POLYUNSATURATED FATTY ACIDS” (University of Utah Research Foundation, priority 2020, published 2023).

Assays:
[1] = DSPC flip-flop kinetics by sum-frequency vibrational spectroscopy; format: physicochemical; settings: 0.1 mol % VLC-PUFA in DSPC vs pure DSPC, about 46° C.
Description: Planar supported lipid bilayers (PSLBs) used in this study were prepared using the Langmuir-Blodgett/Langmuir-Schaefer (LB/LS) method, the details of which are presented elsewhere (Liu and Conboy (2009) Vib. Spectrosc. 50: 106-115). Briefly, the cleaned SiO2 prisms were submerged in PBS. Afterwards, 0.1 mol % VLC-PUFA in DSPCd70 was spread over the air/water interface and allowed to thermally equilibrate for 15 minutes. Afterwards, the monolayer was compressed to 30 mN/m at a rate of 4 mm/min, and the surface pressure was allowed to stabilize for another 5 minutes. The prism was then withdrawn at a rate of 3 mm/min to deposit the LB layer. The subphase was removed, and the trough was cleaned using methanol, isopropanol, and water. […]
Following bilayer assembly, the flow-cell was flushed with PBS in D2O to eliminate any spectral interference from the 0-H bands from water. […] The flip-flop rates of DSPC were determined from the decay of methyl symmetric stretch mode (CH3 vs) for an asymmetrically prepared VLC-PUFA:DSPC membrane in which on leaflet contained dueterated DSPCd70 and DSPC. As DSPC lipid exchange between leaflets, the intensity of the CH3 vs decreases over time due to flip-flop and the rate of exchange is determined by fitting the data to ICH3(t)=Imin+Imaxe^−4kt, the results of which are presented in FIG. 2B. The half-lives of flip-flop were calculated using […]

[2] = Single dose gavage bioavailability, GC-MS of serum and tissues; format: in vivo, WT mice (C57BL/6J); settings: single oral gavage dose of 6 mg, mice
Description: WT mice (C57BL/6J) mice have been used in this study for single dose gavage, repeated dose gavage and optomotry experiments. VLC-PUFA liposomes have been prepared using liposome kit (0.05%) with an addition of alpha-tocopherol (VE) (0.025%) to prevent oxidation. Three month old WT mice were gavage fed with VLC-PUFA liposomes. A dose of 6 mg/mice/day was used, half the dosage used for DHA by previous studies (Jiang, et al. (2009) The Journal of Nutritional Biochemistry 20: 735-741; Hacioglui, et al. (2007) Neurobiology of Learning and Memory 87: 159-165). The mice were gavage fed and sacrificed at time intervals (n=4/time point) of 2, 4, 8, and 24 hr to harvest the blood and other tissues. Eyes were dissected under the microscope to separate retina from RPE. One pair of retina/mouse have been used for lipid extraction as described in the procedure elsewhere. Blood was centrifuged for 5 min at 7500 rpm to separate serum from RBC. Serum, RBC, liver, retina and RPE have been used for lipid extractions and GC-MS analysis.
(§1) Serum, RBCs, orbital adipose tissue, and retina punches, were extracted using the procedure previously adopted (Liu, et al. (2013) J. Chromatogr. A 1307: 191-200). The samples and internal standards (50 μg of tridecanoic acid and 1.15 μg of hentriacontanoic acid) were added in 2 ml stainless steel vials and then homogenized with 0.7 ml silica beads and 1 ml hexane-isopropanol (3:2 v:v) by a Mini Bead Beater-16 (BioSpec Products Inc., Bartlesville, Okla., USA) and a Sonic Dismembrator Model 100 (Fisher Scientific, Pittsburgh, Pa., USA). The homogenized samples were bath sonicated for 5 min in an ice water bath. After centrifugation at 10,000 rpm for 5 min, the extracted solution supernatant was transferred to a clean vial and then dried under a stream of nitrogen. The dried film was dissolved in 200 μl hexane, and 2 ml of 4% HCl in methanol was added. The tubes were flushed with argon and incubated at 80° C. for 4 hr to form FAMEs (Liu, et al. (2013) J. Chromatogr. A 1307: 191-200) and then allowed to cool. The FAME mixture was extracted three times with 1 ml distilled water and 2 ml hexane. The hexane layers were combined and dried under nitrogen gas.
(§2) Silica gel, glass-encased, solid-phase extraction cartridges were subsequently used to clean the FAME extracts. The cartridge was activated with 6 ml of hexane before loading samples. The crude FAME extract was dissolved in 200 μl of hexane and loaded onto the activated cartridge. The cartridge was washed with 6 ml hexane, and the eluate was discarded. FAMEs were eluted from the cartridge with 5 ml hexane:ether (4:1), and the eluate was evaporated under nitrogen gas. The dry film was dissolved in 200 μl of hexane and centrifuged for 3 min at 14,000 rpm to remove particles prior to GC-MS analysis. 1 μl of sample was injected into the GC-MS instrument for LC-PUFAs analysis. For VLC-PUFAs analysis, the sample was dried with nitrogen again and re-dissolved in 20 μl of n-nonane, and 5 μl samples were injected into the GC-MS instrument.
(§3) The Thermo Trace GC-DSQ II system (ThermoFisher Scientific, Waltham, Mass., USA) consists of an automatic sample injector (AS 3000), gas chromatograph (GC), single quadrupole mass detector, and an analytical workstation. The chromatographic separation was carried out with an Rxi-5MS coated 5% diphenyl/95% dimethyl polysiloxane capillary column (30 m×0.25 mm i.d, 0.25 μm film thickness) (Restek, Bellefonte, Pa., USA). Two methods (A and B) were used for detection and quantitation of LC-PUFAs and VLC-PUFAs, respectively as previously published (Liu, et al. (2013) J. Chromatogr. A 1307: 191-200). Bovine retina VLC-PUFAs were extracted and employed as VLC-PUFA standards to establish retention times because commercial standards are not available, and identification of each VLC-PUFA in retinal samples was achieved as described in prior work (Liu, et al. (2010) J. Lipid Res. 51: 3217-3229).

[3] = π-A isotherms of VLC-PUFA in DSPC lipid monolayers (Langmuir trough); format: physicochemical
Description: Pressure-area (π-A) isotherms were collected using a Langmuir trough (KSV, Helsinki, Finland). PBS was used as the subphase for all isotherms. Stock solutions of pure VLC-PUFA, pure DSPC, and DSPC containing 0.1 mol %, 1 mol %, or 10 mol % VLC-PUFA were spread at the air/water interface and allowed to equilibrate for 15 minutes prior to compression to allow for solvent evaporation. The monolayers were compressed at a rate of 2 mm/min at 22±1° C. and repeated in triplicate. The averaged isotherms were smoothed using a 100-point rolling average. The MMA of mixture of VLC-PUFA in DSPC layers was calculated by the formula: MMADSPC+VLC-PUFA=MMADSPCXDSPC+MMAVLC-PUFAXVLC-PUFA, where the X is mol fraction of DSPC and VLC-PUFA in membrane.
After developing an efficient synthetic route to producing VLC-PUFAs, their previously unexplored biophysical properties were studied, including their impact on membrane packing and compressibility as well their influence on membrane dynamics, particularly lipid flip-flop. […] The changes imparted by VLC-PUFAs on lipid packing and the compression moduli of model membranes were evaluated from π-A isotherms of 32:6 n-3 in 1,2-distearoyl-sn-3-glycero-phosphocholine (DSPC) lipid monolayers (FIG. 2A). […]

[4] = Repeated dose gavage for 15 days, GC-MS of serum and tissues; format: in vivo, WT mice (C57BL/6J); settings: gavage 15 days
Description: Repeated dose gavage. VLC-PUFA liposomes were gavaged to three month old WT mice for 15 days. The mice were divided into three groups (n=4/group), Group 1 was fed with liposomes prepared with PC and alpha-tocopherol, Group 2 was fed with liposomes prepared with PC, VE, and 1 mg VLC-PUFAs and Group 3 was fed with liposomes with PC, VE and 2 mg VLC-PUFAs. Mice were sacrificed at the end of the experiment and organs were harvested, extracted for lipids and analyzed by GC-MS using the procedure mentioned elsewhere.
as §1, §2, §3

WT mice (C57BL/6J) = experiment: Optomotry/Visual behavior test after repeated dose gavage; format: in vivo; settings: 2 mg/day for 15 days by gavage, compared to controls
Description: Optomotry/Visual behavior test. Repeated dose gavage fed mice were tested for visual behavior to observe the effect of VLC-PUFA on vision. Since the optomotry tests could be manipulative, all the analysts were double blinded. 3 month-old mice were employed to test spatial visual acuity using the OptoMotry system (Cerebral Mechanics, Lethbridg, AB, Canada). Briefly, individual mice were placed on a platform centered in a quad-square formed by four inward facing computer screens, and their movements were monitored by an overhead video camera. Photopic measurements were conducted under illuminance of around 165 lux. […] During the detection of spatial frequency threshold, the rotation speed and contrast were kept at 12°/s, and 100%, respectively, while the frequency was kept at 0.19 cycle/degree in the examination of contrast sensitivity. All experiments had concurrent control mice fed with placebo chow.

[5] = 1 and 2 mg/day groups vs control mice (undetectable)
[6] = both 1 and 2 mg/day groups vs 0 mg/day controls, mice

CC/C=C\C/C=C\C/C=C\C/C=C\C/C=C\C/C=C\CCCCCCCCCCCCC(=O)O [32:6 n-3, (14Z,17Z,20Z,23Z,26Z,29Z)-dotriaconta-14,17,20,23,26,29-hexaenoic acid]
increase of the DSPC flip-flop rate [1]: 4 fold | 32:6 n-3 level in RPE ([2]; 4-8 hr after gavage): significant increase | 32:6 n-3 level in retina ([2]; 4-8 hr after gavage): significant increase | time until serum VLC-PUFAs became detectable ([2]; serum): ≤ 2 h | serum VLC-PUFA concentration course after the first detection ([2]; serum, over the next 24 hr): reached a lower steady-state concentration | VLC-PUFAs in brain ([2]; throughout the 24 hr-period): undetectable | VLC-PUFAs in liver ([2]; throughout the 24 hr-period): undetectable | VLC-PUFAs in red blood cell (RBC) membranes ([2]; throughout the 24 hr-period): undetectable | elasticity of DSPC membranes ([3]; 0.1 mol % VLC-PUFA in DSPC membranes): high elasticity | shift of π-A isotherm / mean molecular area (MMA) of the lipids ([3]; 0.1 mol %, 1 mol % and 10 mol % VLC-PUFA in DSPC monolayer, PBS pH 7.4 subphase, 22° C.): shifted the π-A isotherm to higher MMAs | RBC VLC-PUFAs [4, 5]: significant increase | serum VLC-PUFAs [4, 5]: significant increase | VLC-PUFAs in brain ([4]; 1 and 2 mg/day, mice): no VLC-PUFAs were detectable | VLC-PUFAs in liver ([4]; 1 and 2 mg/day, mice): detectable levels of VLC-PUFAs only in the 2 mg/day group | increase of VLC-PUFA levels in RPE [4, 6]: 7 fold | increase of VLC-PUFA levels in retina [4, 6]: 2 fold | toxic symptoms or behavioral changes ([4]; treatment groups compared to the control group, mice): toxic symptoms or behavioral changes were observed | contrast sensitivity (rod function) (WT mice (C57BL/6J)): improved significantly | visual acuity (cone function) (WT mice (C57BL/6J)): improved significantly
